Results: publication PMC10004634 (PLOS ONE, 2023)

Tests used:
Experiment in all cases: biochemical
Design in all cases: KINOMEscan scanMAX competition binding, DNA-tagged kinases, qPCR read-out, percent control at 300 nM
PYK2 = target: T1, PYK2 (Homo sapiens, UniProt Q14289); conditions: read-out: Percent control / Acalabrutinib
T1 construct: gene PTK2B

[1] = target: T2, ABL1(T315I)-nonphosphorylated (Homo sapiens, UniProt P00519, T315I); conditions: read-out: Percent control / Acalabrutinib
T2 construct: nonphosphorylated

p38-gamma = target: T3, p38-gamma (Homo sapiens, UniProt P53778); conditions: read-out: Percent control / Acalabrutinib
T3 construct: gene MAPK12
T3 sequence (P53778 whole entry): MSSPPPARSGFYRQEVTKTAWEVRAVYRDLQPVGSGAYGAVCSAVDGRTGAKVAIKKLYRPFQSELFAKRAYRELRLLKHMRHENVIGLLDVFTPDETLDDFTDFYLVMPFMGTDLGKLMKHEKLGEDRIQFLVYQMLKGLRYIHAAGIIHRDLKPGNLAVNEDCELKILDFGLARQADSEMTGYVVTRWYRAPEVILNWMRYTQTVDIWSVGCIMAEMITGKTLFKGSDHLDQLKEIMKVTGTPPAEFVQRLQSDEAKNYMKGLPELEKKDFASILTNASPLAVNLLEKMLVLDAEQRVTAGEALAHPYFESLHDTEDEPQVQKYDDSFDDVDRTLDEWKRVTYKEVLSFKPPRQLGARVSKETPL

CAMK2G = CAMK2G (Homo sapiens, UniProt Q13555); conditions: read-out: Percent control / Acalabrutinib
Chain of CAMK2G (Q13555 whole entry): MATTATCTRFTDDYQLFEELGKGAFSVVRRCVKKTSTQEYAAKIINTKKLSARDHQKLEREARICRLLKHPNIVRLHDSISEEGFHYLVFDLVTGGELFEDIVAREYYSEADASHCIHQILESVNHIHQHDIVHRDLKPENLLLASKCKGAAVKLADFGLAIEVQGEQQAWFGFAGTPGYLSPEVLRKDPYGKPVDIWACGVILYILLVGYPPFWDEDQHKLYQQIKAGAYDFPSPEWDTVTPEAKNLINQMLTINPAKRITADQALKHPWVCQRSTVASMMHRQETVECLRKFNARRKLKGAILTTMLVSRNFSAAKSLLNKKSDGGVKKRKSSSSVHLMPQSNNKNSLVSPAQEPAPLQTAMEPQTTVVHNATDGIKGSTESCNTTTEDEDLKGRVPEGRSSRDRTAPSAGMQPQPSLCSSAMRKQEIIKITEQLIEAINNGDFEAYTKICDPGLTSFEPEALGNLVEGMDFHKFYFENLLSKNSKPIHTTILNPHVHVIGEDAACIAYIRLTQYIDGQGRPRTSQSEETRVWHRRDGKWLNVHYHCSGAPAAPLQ

CAMK1 = CAMK1 (Homo sapiens, UniProt Q14012); conditions: read-out: Percent control / Acalabrutinib
Chain of CAMK1 (Q14012 whole entry, looked up): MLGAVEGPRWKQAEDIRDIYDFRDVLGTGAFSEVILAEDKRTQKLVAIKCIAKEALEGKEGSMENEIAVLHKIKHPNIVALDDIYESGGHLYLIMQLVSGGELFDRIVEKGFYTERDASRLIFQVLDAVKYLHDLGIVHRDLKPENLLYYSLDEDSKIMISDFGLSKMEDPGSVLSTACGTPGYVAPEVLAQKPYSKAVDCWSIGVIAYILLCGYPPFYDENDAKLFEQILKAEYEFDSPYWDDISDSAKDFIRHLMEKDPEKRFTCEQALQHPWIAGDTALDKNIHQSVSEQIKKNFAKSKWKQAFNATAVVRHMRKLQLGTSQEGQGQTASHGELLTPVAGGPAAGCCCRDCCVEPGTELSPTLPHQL

HIPK1 = HIPK1 (Homo sapiens, UniProt Q86Z02); conditions: read-out: Percent control / Acalabrutinib
ASK1 = target: T4, ASK1 (Homo sapiens, UniProt Q99683); conditions: read-out: Percent control / Acalabrutinib
T4 construct: gene MAP3K5

CSNK1A1 = CSNK1A1 (Homo sapiens, UniProt P48729); conditions: read-out: Percent control / Acalabrutinib
Chain of CSNK1A1 (P48729 whole entry): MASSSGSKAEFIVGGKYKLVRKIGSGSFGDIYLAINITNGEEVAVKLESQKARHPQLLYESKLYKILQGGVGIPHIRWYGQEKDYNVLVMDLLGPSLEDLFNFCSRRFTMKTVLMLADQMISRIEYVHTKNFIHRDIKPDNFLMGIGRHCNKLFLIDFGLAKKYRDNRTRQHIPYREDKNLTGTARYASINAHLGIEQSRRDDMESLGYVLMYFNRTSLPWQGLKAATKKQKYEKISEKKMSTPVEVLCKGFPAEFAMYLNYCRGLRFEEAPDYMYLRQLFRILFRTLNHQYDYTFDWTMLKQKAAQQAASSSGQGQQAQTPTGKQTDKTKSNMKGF

CAMK2A = CAMK2A (Homo sapiens, UniProt Q9UQM7); conditions: read-out: Percent control / Ibrutinib
Chain of CAMK2A (Q9UQM7 whole entry, looked up): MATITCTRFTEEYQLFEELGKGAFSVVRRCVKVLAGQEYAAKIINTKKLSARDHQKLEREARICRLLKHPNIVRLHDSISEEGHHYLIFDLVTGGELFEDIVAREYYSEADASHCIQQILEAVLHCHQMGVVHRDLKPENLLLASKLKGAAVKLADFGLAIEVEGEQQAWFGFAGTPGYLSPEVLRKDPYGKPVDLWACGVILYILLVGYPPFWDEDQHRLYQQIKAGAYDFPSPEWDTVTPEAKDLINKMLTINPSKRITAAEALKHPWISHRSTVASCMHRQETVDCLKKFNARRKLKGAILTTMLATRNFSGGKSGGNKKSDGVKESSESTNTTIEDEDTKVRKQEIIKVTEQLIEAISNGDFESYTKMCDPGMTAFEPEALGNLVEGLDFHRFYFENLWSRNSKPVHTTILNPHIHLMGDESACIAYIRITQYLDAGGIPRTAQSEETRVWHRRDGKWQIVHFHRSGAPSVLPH

EGFR(L747-T751del,Sins) = EGFR(L747-T751del,Sins) (Homo sapiens, UniProt P00533, DEL747-750/T751S); conditions: read-out: Percent control / Tirabrutinib
TLK2 = TLK2 (Homo sapiens, UniProt Q86UE8); conditions: read-out: Percent control / Tirabrutinib
MARK1 = MARK1 (Homo sapiens, UniProt Q9P0L2); conditions: read-out: Percent control / Tirabrutinib
ACVR1 = ACVR1 (Homo sapiens, UniProt Q04771); conditions: read-out: Percent control / Zanubrutinib
PCTK1 = target: T5, PCTK1 (Homo sapiens, UniProt Q00536); conditions: read-out: Percent control / Zanubrutinib
T5 construct: gene CDK16
T5 sequence (Q00536 whole entry): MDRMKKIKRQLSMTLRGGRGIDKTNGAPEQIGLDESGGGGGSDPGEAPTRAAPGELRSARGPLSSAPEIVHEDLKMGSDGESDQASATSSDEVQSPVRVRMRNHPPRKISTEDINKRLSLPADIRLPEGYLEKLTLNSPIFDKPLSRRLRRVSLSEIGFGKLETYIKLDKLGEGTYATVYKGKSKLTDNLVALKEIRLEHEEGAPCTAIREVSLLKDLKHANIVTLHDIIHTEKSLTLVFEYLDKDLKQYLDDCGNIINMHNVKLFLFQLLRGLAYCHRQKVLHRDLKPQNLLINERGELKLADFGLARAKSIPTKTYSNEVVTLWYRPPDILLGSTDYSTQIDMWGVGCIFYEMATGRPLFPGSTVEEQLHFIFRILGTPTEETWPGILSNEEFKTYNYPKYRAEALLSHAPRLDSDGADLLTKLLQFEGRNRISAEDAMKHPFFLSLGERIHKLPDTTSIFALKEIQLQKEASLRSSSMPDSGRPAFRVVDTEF

PRKG2 = PRKG2 (Homo sapiens, UniProt Q13237); conditions: read-out: Percent control / Zanubrutinib
ULK2 = ULK2 (Homo sapiens, UniProt Q8IYT8); conditions: read-out: Percent control / Zanubrutinib
TGFBR2 = TGFBR2 (Homo sapiens, UniProt P37173); conditions: read-out: Percent control / Zanubrutinib
Chain of TGFBR2 (P37173 whole entry): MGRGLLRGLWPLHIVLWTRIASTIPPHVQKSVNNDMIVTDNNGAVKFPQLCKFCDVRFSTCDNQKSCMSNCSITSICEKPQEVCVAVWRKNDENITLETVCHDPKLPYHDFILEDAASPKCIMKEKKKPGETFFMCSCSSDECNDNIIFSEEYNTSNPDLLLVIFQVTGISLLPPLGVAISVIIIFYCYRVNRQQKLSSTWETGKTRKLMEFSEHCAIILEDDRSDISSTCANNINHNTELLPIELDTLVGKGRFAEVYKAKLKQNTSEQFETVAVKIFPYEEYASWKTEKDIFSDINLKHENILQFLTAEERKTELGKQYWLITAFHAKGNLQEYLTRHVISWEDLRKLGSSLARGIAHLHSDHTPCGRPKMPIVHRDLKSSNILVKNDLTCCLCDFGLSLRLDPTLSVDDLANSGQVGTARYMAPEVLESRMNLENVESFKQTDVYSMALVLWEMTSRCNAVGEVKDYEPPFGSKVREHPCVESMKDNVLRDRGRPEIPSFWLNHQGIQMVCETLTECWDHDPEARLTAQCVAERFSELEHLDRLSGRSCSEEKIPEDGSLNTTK

PIK3CA(C420R) = PIK3CA(C420R) (Homo sapiens, UniProt P42336, C420R); conditions: read-out: Percent control / Zanubrutinib
MST1 = target: T6, MST1 (Homo sapiens, UniProt Q13043); conditions: read-out: Percent control / Zanubrutinib
T6 construct: gene STK4

IKK-beta = target: T7, IKK-beta (Homo sapiens, UniProt O14920); conditions: read-out: Percent control / Zanubrutinib
T7 construct: gene IKBKB

PIM3 = PIM3 (Homo sapiens, UniProt Q86V86); conditions: read-out: Percent control / Zanubrutinib
PLK2 = PLK2 (Homo sapiens, UniProt Q9NYY3); conditions: read-out: Percent control / Zanubrutinib
Chain of PLK2 (Q9NYY3 whole entry): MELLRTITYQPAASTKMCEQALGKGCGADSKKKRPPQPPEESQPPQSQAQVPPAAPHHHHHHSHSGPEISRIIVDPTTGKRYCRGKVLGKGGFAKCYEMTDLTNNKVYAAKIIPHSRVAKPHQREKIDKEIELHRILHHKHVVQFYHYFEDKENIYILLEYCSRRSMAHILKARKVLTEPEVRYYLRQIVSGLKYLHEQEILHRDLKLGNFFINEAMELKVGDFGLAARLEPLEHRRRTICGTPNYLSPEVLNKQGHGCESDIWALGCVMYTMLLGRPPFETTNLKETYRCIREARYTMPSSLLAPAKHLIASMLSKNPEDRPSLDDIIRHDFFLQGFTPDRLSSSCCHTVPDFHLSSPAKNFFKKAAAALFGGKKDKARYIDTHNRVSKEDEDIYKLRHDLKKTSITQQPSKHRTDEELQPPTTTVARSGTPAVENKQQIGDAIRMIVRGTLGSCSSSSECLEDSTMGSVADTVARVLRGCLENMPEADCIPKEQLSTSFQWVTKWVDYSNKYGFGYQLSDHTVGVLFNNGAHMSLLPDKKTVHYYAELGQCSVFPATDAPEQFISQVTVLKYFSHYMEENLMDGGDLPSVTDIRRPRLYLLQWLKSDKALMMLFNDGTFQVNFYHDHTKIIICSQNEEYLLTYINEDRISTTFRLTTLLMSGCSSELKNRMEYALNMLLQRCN

MYLK2 = MYLK2 (Homo sapiens, UniProt Q9H1R3); conditions: read-out: Percent control / Zanubrutinib
Chain of MYLK2 (Q9H1R3 whole entry): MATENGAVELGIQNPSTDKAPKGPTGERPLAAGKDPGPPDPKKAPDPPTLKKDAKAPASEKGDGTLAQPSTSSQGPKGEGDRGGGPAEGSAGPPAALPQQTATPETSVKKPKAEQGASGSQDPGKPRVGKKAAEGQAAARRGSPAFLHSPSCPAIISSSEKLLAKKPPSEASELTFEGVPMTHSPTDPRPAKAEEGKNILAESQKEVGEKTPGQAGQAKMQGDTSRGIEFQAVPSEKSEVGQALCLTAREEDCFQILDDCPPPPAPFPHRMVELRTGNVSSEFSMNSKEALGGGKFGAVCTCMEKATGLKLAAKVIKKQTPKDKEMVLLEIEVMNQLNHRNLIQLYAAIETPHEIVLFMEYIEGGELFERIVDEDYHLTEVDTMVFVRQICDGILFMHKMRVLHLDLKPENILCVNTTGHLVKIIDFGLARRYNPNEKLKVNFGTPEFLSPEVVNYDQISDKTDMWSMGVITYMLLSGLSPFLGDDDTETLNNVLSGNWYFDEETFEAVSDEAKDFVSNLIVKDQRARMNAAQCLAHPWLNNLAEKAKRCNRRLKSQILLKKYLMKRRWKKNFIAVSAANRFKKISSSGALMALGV

CC#CC(=O)N1CCC[C@H]1c1nc(-c2ccc(C(=O)Nc3ccccn3)cc2)c2c(N)nccn12 [Acalabrutinib] gave a remaining binding at 0.3 µM (PYK2) of 89%, a remaining binding at 0.3 µM [1] of 96% and a remaining binding at 0.3 µM (p38-gamma) of 75%. It also gave a remaining binding at 0.3 µM (CAMK2G) of 95%, a remaining binding at 0.3 µM (CAMK1) of 58% and a remaining binding at 0.3 µM (HIPK1) of 85%. For the same compound, the remaining binding at 0.3 µM (ASK1) was 93% and the remaining binding at 0.3 µM (CSNK1A1) was 76%.
For C=CC(=O)N1CCC[C@@H](n2nc(-c3ccc(Oc4ccccc4)cc3)c3c(N)ncnc32)C1 [Ibrutinib], the remaining binding at 0.3 µM (CAMK2A) was 82%.
CC#CC(=O)N1CC[C@@H](n2c(=O)n(-c3ccc(Oc4ccccc4)cc3)c3c(N)ncnc32)C1 [Tirabrutinib] was tested, and the remaining binding at 0.3 µM (EGFR(L747-T751del,Sins)) was 80%, the remaining binding at 0.3 µM (TLK2) was 90% and the remaining binding at 0.3 µM (MARK1) was 88%.
C=CC(=O)N1CCC([C@@H]2CCNc3c(C(N)=O)c(-c4ccc(Oc5ccccc5)cc4)nn32)CC1 [Zanubrutinib] showed a remaining binding at 0.3 µM (ACVR1) of 100%, a remaining binding at 0.3 µM (PCTK1) of 100% and a remaining binding at 0.3 µM (PRKG2) of 85%. It also gave a remaining binding at 0.3 µM (ULK2) of 99%, a remaining binding at 0.3 µM (TGFBR2) of 90% and a remaining binding at 0.3 µM (PIK3CA(C420R)) of 67%. For the same compound, the remaining binding at 0.3 µM (MST1) was 90%, the remaining binding at 0.3 µM (IKK-beta) was 100% and the remaining binding at 0.3 µM (PIM3) was 84%. For the same compound, the remaining binding at 0.3 µM (PLK2) was 100% and the remaining binding at 0.3 µM (MYLK2) was 96%.
